# Test results from ChEMBL document CHEMBL1129740, “Structure-activity relationships of a series of substituted benzamides: potent D2/5-HT2 antagonists and 5-HT1a agonists as neuroleptic agents” (J Med Chem, 1996).
# How the values were obtained:
# [1] = molecular target: T1, 5-hydroxytryptamine receptor 1A (Rattus norvegicus, UniProt P19327); assay: In vitro inhibitory activity against [3H]8-OH-DPAT binding to 5-hydroxytryptamine 1A receptor
# T1 sequence (P19327 whole entry): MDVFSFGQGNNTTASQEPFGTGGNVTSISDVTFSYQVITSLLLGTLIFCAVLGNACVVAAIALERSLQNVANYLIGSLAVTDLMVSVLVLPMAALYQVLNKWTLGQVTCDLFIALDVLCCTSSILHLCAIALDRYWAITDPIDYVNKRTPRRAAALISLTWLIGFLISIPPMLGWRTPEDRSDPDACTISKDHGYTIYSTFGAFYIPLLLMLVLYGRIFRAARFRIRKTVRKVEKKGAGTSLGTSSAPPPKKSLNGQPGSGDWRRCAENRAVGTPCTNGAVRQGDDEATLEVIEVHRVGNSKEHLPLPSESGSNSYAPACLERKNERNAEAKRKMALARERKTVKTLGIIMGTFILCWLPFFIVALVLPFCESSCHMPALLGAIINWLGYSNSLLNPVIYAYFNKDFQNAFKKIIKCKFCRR
# [2] = molecular target: Serotonin 2 (5-HT2) receptor (Rattus norvegicus, UniProt P30994+P08909+P14842); assay: In vitro inhibitory activity against [3H]ketanserin binding to 5-hydroxytryptamine 2 receptor; format: protein assay
# Mus musculus [3] = assay: In vivo effective dose required to antagonize the apomorphine induced climbing response in mice administered perorally; format: functional; conditions: po
# Mus musculus [4] = assay: In vivo effective dose required to antagonize the apomorphine induced climbing response in mice administered intraperitoneally.; format: functional; conditions: ip
# Mus musculus [5] = assay: In vivo effective dose to antagonize the apomorphine induced climbing response in stereotype mouse administered intraperitoneally; format: functional; conditions: ip
# Mus musculus [6] = assay: In vivo effective dose to induce catalepsy in mouse administered perorally.; format: functional; conditions: po
# Mus musculus [7] = assay: In vivo effective dose to antagonize the apomorphine induced climbing response in stereotypy mouse administered perorally; format: functional; conditions: po
# Mus musculus [8] = assay: In vivo effective dose to antagonize the apomorphine induced climbing response in mice administered intraperitoneally.; format: functional; conditions: ip
Structure (SMILES),IC50 [1] [nM],IC50 [2] [nM],ED50 (Mus musculus [3]) [mg/kg],ED50 (Mus musculus [4]) [mg/kg],ED50 (Mus musculus [5]) [mg/kg],ED50 (Mus musculus [6]) [mg/kg],ED50 (Mus musculus [7]) [mg/kg],ED50 (Mus musculus [8]) [mg/kg]
CC(C)(C)c1ccc(C(=O)NCCCCN2CCN(c3nsc4ccccc34)CC2)cc1.Cl,520,68,> 25,–,–,–,–,–
CC(=O)Nc1ccccc1C(=O)NCCCCN1CCN(c2nsc3ccccc23)CC1.Cl,5.2,2,22.3,4.1,–,–,–,–
Cl.O=C(NCCCCN1CCN(c2nsc3ccccc23)CC1)c1cc(Cl)cc(Cl)c1,49,1.7,–,> 25,–,–,–,–
COc1ccc(C(=O)NCCCCN2CCN(c3nsc4ccccc34)CC2)cc1.Cl,9,2.3,> 25,2.4,–,–,–,–
Cl.Nc1cc(C(F)(F)F)ccc1C(=O)NCCCCN1CCN(c2nsc3ccccc23)CC1,12,2.3,> 50,6.9,–,–,–,–
Cl.Nc1cccc(F)c1C(=O)NCCCCN1CCN(c2nsc3ccccc23)CC1,4.2,1.6,20.8,7.8,–,–,–,–
Cl.Nc1ccc([N+](=O)[O-])cc1C(=O)NCCCCN1CCN(c2nsc3ccccc23)CC1,20,3.8,–,19.6,–,–,–,–
Cl.O=C(NCCCCN1CCN(c2nsc3ccccc23)CC1)c1ccc(C(F)(F)F)cc1,9.1,1.5,> 25,12.5,–,–,–,–
CNc1ccccc1C(=O)NCCCCN1CCN(c2nsc3ccccc23)CC1.Cl,10,12,15.6,5.8,13.5,80.6,65,–
Cl.Nc1ccc(C(=O)NCCCCN2CCN(c3nsc4ccccc34)CC2)cc1,23,150,–,> 25,–,–,–,–
Cc1cccc(N)c1C(=O)NCCCCN1CCN(c2nsc3ccccc23)CC1.Cl,64,8.9,–,> 25,–,–,–,–
CCOC(=O)Nc1ccccc1C(=O)NCCCCN1CCN(c2nsc3ccccc23)CC1.Cl,–,1.4,32.8,1.8,–,–,–,–
Cl.Nc1ccc(F)cc1C(=O)NCCCCN1CCN(c2nsc3ccccc23)CC1,–,2.3,31.8,2.2,–,–,–,–
Cl.O=C(NCCCCN1CCN(c2nsc3ccccc23)CC1)c1ccc(/N=N/c2ccccc2)cc1,540,26,–,> 25,–,–,–,–
Cl.O=C(NCCCCN1CCN(c2nsc3ccccc23)CC1)c1ccccc1,5.2,2.1,21.5,1.1,–,–,–,–
CC(C)(C)OC(=O)Nc1ccc(C(=O)NCCCCN2CCN(c3nsc4ccccc34)CC2)cc1.Cl,0.7,0.23,–,> 25,–,–,–,–
CCc1cc(Cl)c(O)c(C(=O)NCCCCN2CCN(c3nsc4ccccc34)CC2)c1OC.Cl,23,6.3,–,25.5,–,–,–,–
Cl.O=C(NCCCCN1CCN(c2nsc3ccccc23)CC1)c1c(O)ccc(Br)c1O,120,16,28.8,6,–,–,–,–
COc1ccc(Br)c(O)c1C(=O)NCCCCN1CCN(c2nsc3ccccc23)CC1.Cl,26,15,14.3,1.5,15.4,123,87.5,–
COc1ccc(N)c(C(=O)NCCCCN2CCN(c3nsc4ccccc34)CC2)c1.Cl,10,1.4,> 50,2.1,–,–,–,–
CCc1cc(Cl)c(OC)c(C(=O)NCCCCN2CCN(c3nsc4ccccc34)CC2)c1OC.Cl,180,30,–,26,–,–,–,–

Structure (SMILES),IC50 [1] [nM],IC50 [2] [nM],ED50 (Mus musculus [3]) [mg/kg],ED50 (Mus musculus [4]) [mg/kg],ED50 (Mus musculus [5]) [mg/kg],ED50 (Mus musculus [6]) [mg/kg],ED50 (Mus musculus [7]) [mg/kg],ED50 (Mus musculus [8]) [mg/kg]
Cc1cccc(C(=O)NCCCCN2CCN(c3nsc4ccccc34)CC2)c1N.Cl,–,5.8,37.6,5.4,–,–,–,–
Cl.Nc1cc(F)ccc1C(=O)NCCCCN1CCN(c2nsc3ccccc23)CC1,4.2,0.59,27.1,2.5,–,–,–,–
CC(C)[C@@H](Nc1ccccc1C(=O)NCCCCN1CCN(c2nsc3ccccc23)CC1)C(=O)O.Cl,8.6,1.6,–,> 25,–,–,–,–
COc1ccc(Br)c(OC)c1C(=O)NCCCCN1CCN(c2nsc3ccccc23)CC1.Cl,74,12,–,> 25,–,–,–,–
COc1cccc(C(=O)NCCCCN2CCN(c3nsc4ccccc34)CC2)c1N.Cl,4.1,1.6,20.3,2.2,–,–,–,–
Cl.Nc1cccc(Cl)c1C(=O)NCCCCN1CCN(c2nsc3ccccc23)CC1,–,3.4,–,> 25,–,–,–,–
Cl.O=C(NCCCCN1CCN(c2nsc3ccccc23)CC1)c1ccc(Cl)cc1,15,5.6,> 25,9.4,–,–,–,–
CN(CCCCN1CCN(c2nsc3ccccc23)CC1)C(=O)c1ccccc1.Cl,1.4,3.9,22.4,10,–,–,–,–
COc1c(Br)ccc(O)c1C(=O)NCCCCN1CCN(c2nsc3ccccc23)CC1.Cl,–,14,> 25,4.7,–,–,–,–
CC(=O)Nc1ccc(C(=O)NCCCCN2CCN(c3nsc4ccccc34)CC2)cc1.Cl,–,51,> 25,> 25,–,–,–,–
Cl.[N-]=[N+]=Nc1ccccc1C(=O)NCCCCN1CCN(c2nsc3ccccc23)CC1,3.7,1.8,–,–,–,–,–,25
Cl.O=C(NCCCCN1CCN(c2nsc3ccccc23)CC1)c1ccccc1[N+](=O)[O-],6.4,3.7,–,25,–,–,–,–
Cl.Nc1cccc(C(=O)NCCCCN2CCN(c3nsc4ccccc34)CC2)c1,6.6,2.6,–,–,–,–,–,–
Cl.NNc1ccccc1C(=O)NCCCCN1CCN(c2nsc3ccccc23)CC1,3.8,2.4,40.4,10.8,–,–,–,–
CC(C)[C@H](Nc1ccccc1C(=O)NCCCCN1CCN(c2nsc3ccccc23)CC1)C(=O)O.Cl,5.4,2.7,17.9,–,26.9,44.5,59.9,–
CN(CCCCN1CCN(c2nsc3ccccc23)CC1)C(=O)c1ccccc1N.Cl,1.2,2.3,–,> 12,–,–,–,–
CC(C)(C)OC(=O)Nc1cccc(C(=O)NCCCCN2CCN(c3nsc4ccccc34)CC2)c1.Cl,12,1.3,–,> 25,–,–,–,–
Cl.Nc1c(F)cccc1C(=O)NCCCCN1CCN(c2nsc3ccccc23)CC1,1.5,0.5,14.3,0.9,8.9,55.5,46.7,–
CCc1cc(Cl)c(OC)c(C(=O)NCCCCN2CCN(c3nsc4ccccc34)CC2)c1O.Cl,69,6.8,–,> 25,–,–,–,–
Cl.Nc1ccc(Cl)cc1C(=O)NCCCCN1CCN(c2nsc3ccccc23)CC1,9.4,1.6,25,< 6,–,–,–,–
